Assay results reported in PubChem BioAssay AID1963975 (Molecular Pharmacology Branch, DTP, NCI, 2024).

System: 624824-186-R-J2-PDC multicell spheroids, viability
Assay: Anticancer human tumor 624824-186-R-J2-PDC patient-derived colon adenocarcinoma cell line growth inhibition [PI3K]
Conditions: for IC50: curve of first compound; for viability, T/C: stronger effect = lower value
In short: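 Viability of mixed-cell spheroids was determined after exposure to pairwise combinations, one partner being inavolisib, alpelisib, duvelisib or copanlisib. Highest tested concentration matched clinical Cmax where known and 10 microM where not, descending in half-log steps.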

[1] = second compound 0.0316 µM, first compound 0.0316 µM
[2] = second compound 0.0316 µM, first compound 0.1 µM
[3] = second compound 0.1 µM, first compound 0.0316 µM
[4] = second compound 0.1 µM, first compound 0.1 µM
[5] = second compound 0.316 µM, first compound 0.0316 µM
[6] = second compound 0.316 µM, first compound 0.1 µM
[7] = second compound 1 µM, first compound 0.0316 µM
[8] = second compound 1 µM, first compound 0.1 µM
[9] = second compound 3.16 µM, first compound 0.0316 µM
[10] = second compound 3.16 µM, first compound 0.1 µM
[11] = second compound 10 µM, first compound 0.0316 µM
[12] = second compound 10 µM, first compound 0.1 µM
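Further: spheroids exposed to agents for 7 days before viability read.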
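Wherever viability, T/C is given: 100% = DMSO vehicle treated spheroids.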

With CC(C)n1nc(-c2ccc3oc(N)nc3c2)c2c(N)ncnc21 + Cc1nc(NC(=O)N2CCCC2C(N)=O)sc1-c1ccnc(C(C)(C)C(F)(F)F)c1 as the compound, how does the IC50 (second compound 0.0316 µM) read?
Its IC50 is > 0.1 µM.

And the IC50 (second compound 0.1 µM)?
Its IC50 is > 0.1 µM.

And the IC50 (second compound 0.316 µM)?
Its IC50 is > 0.1 µM.

And the IC50 (second compound 1 µM)?
The IC50 was > 0.1 µM.

What about the IC50 (second compound 3.16 µM) of the same compound?
The IC50 was > 0.1 µM.

And the IC50 (second compound 10 µM)?
The IC50 was 0.0375 µM.

What about the viability, T/C (second compound 0.0316 µM, first compound 0.000316 µM) of the same compound?
The viability, T/C was 68.1%.

What about the viability, T/C (second compound 0.0316 µM, first compound 0.001 µM) of the same compound?
The viability, T/C was 74%.

And the viability, T/C (second compound 0.0316 µM, first compound 0.00316 µM)?
Its viability, T/C is 59.7%.

What about the viability, T/C (second compound 0.0316 µM, first compound 0.01 µM) of the same compound?
The viability, T/C was 67.7%.

And the viability, T/C [1]?
The viability, T/C was 58.7%.

And the viability, T/C [2]?
Its viability, T/C is 67.8%.

And the viability, T/C (second compound 0.1 µM, first compound 0.000316 µM)?
Its viability, T/C is 79.1%.

And the viability, T/C (second compound 0.1 µM, first compound 0.001 µM)?
The viability, T/C was 64.5%.

And the viability, T/C (second compound 0.1 µM, first compound 0.00316 µM)?
The viability, T/C was 65.4%.

And the viability, T/C (second compound 0.1 µM, first compound 0.01 µM)?
The viability, T/C was 62.5%.

And the viability, T/C [3]?
The viability, T/C was 74%.

What about the viability, T/C [4] of the same compound?
The viability, T/C was 75%.

What about the viability, T/C (second compound 0.316 µM, first compound 0.000316 µM) of the same compound?
The viability, T/C was 86.9%.

What about the viability, T/C (second compound 0.316 µM, first compound 0.001 µM) of the same compound?
The viability, T/C was 69%.

What about the viability, T/C (second compound 0.316 µM, first compound 0.00316 µM) of the same compound?
The viability, T/C was 81.6%.

And the viability, T/C (second compound 0.316 µM, first compound 0.01 µM)?
The viability, T/C was 64.7%.

And the viability, T/C [5]?
The viability, T/C was 60.9%.

What about the viability, T/C [6] of the same compound?
The viability, T/C was 67.7%.

What about the viability, T/C (second compound 1 µM, first compound 0.000316 µM) of the same compound?
The viability, T/C was 79.4%.

And the viability, T/C (second compound 1 µM, first compound 0.001 µM)?
Its viability, T/C is 61.1%.

And the viability, T/C (second compound 1 µM, first compound 0.00316 µM)?
Its viability, T/C is 61%.

And the viability, T/C (second compound 1 µM, first compound 0.01 µM)?
Its viability, T/C is 70.5%.

And the viability, T/C [7]?
The viability, T/C was 67.1%.

What about the viability, T/C [8] of the same compound?
Its viability, T/C is 63.6%.

What about the viability, T/C (second compound 3.16 µM, first compound 0.000316 µM) of the same compound?
Its viability, T/C is 72.2%.

What about the viability, T/C (second compound 3.16 µM, first compound 0.001 µM) of the same compound?
The viability, T/C was 61.3%.

What about the viability, T/C (second compound 3.16 µM, first compound 0.00316 µM) of the same compound?
Its viability, T/C is 66.1%.

What about the viability, T/C (second compound 3.16 µM, first compound 0.01 µM) of the same compound?
Its viability, T/C is 65.9%.

What about the viability, T/C [9] of the same compound?
Its viability, T/C is 69.7%.

And the viability, T/C [10]?
Its viability, T/C is 53.7%.

What about the viability, T/C (second compound 10 µM, first compound 0.000316 µM) of the same compound?
Its viability, T/C is 68.2%.

What about the viability, T/C (second compound 10 µM, first compound 0.001 µM) of the same compound?
Its viability, T/C is 74%.

And the viability, T/C (second compound 10 µM, first compound 0.00316 µM)?
Its viability, T/C is 65.8%.

What about the viability, T/C (second compound 10 µM, first compound 0.01 µM) of the same compound?
Its viability, T/C is 61.5%.

And the viability, T/C [11]?
Its viability, T/C is 51.8%.

What about the viability, T/C [12] of the same compound?
The viability, T/C was 41.1%.

CC1(C)CCC(CN2CCN(c3ccc(C(=O)NS(=O)(=O)c4ccc(NCC5CCOCC5)c([N+](=O)[O-])c4)c(Oc4cnc5[nH]ccc5c4)c3)CC2)=C(c2ccc(Cl)cc2)C1 + Cc1nc(NC(=O)N2CCCC2C(N)=O)sc1-c1ccnc(C(C)(C)C(F)(F)F)c1 was tested. Which IC50 (second compound 0.0316 µM) did it give?
Its IC50 is > 10 µM.

What about the IC50 (second compound 0.1 µM) of the same compound?
The IC50 was > 10 µM.

And the IC50 (second compound 0.316 µM)?
Its IC50 is > 10 µM.

And the IC50 (second compound 1 µM)?
The IC50 was > 10 µM.

And the IC50 (second compound 3.16 µM)?
The IC50 was > 10 µM.

What about the IC50 (second compound 10 µM) of the same compound?
Its IC50 is 6.9 µM.

What about the viability, T/C [1] of the same compound?
Its viability, T/C is 103%.

And the viability, T/C [2]?
The viability, T/C was 93.7%.

What about the viability, T/C (second compound 0.0316 µM, first compound 0.316 µM) of the same compound?
The viability, T/C was 95.9%.

And the viability, T/C (second compound 0.0316 µM, first compound 1 µM)?
The viability, T/C was 68.5%.

And the viability, T/C (second compound 0.0316 µM, first compound 3.16 µM)?
Its viability, T/C is 70.9%.

And the viability, T/C (second compound 0.0316 µM, first compound 10 µM)?
The viability, T/C was 67.1%.

What about the viability, T/C [3] of the same compound?
Its viability, T/C is 84.3%.

What about the viability, T/C [4] of the same compound?
Its viability, T/C is 88.3%.

And the viability, T/C (second compound 0.1 µM, first compound 0.316 µM)?
The viability, T/C was 88.2%.

What about the viability, T/C (second compound 0.1 µM, first compound 1 µM) of the same compound?
Its viability, T/C is 80.8%.

What about the viability, T/C (second compound 0.1 µM, first compound 3.16 µM) of the same compound?
The viability, T/C was 84.1%.

What about the viability, T/C (second compound 0.1 µM, first compound 10 µM) of the same compound?
Its viability, T/C is 51.7%.

What about the viability, T/C [5] of the same compound?
The viability, T/C was 82.9%.

What about the viability, T/C [6] of the same compound?
Its viability, T/C is 86.9%.

And the viability, T/C (second compound 0.316 µM, first compound 0.316 µM)?
The viability, T/C was 75.6%.

And the viability, T/C (second compound 0.316 µM, first compound 1 µM)?
The viability, T/C was 72.1%.

And the viability, T/C (second compound 0.316 µM, first compound 3.16 µM)?
The viability, T/C was 67.1%.

And the viability, T/C (second compound 0.316 µM, first compound 10 µM)?
The viability, T/C was 67.5%.

What about the viability, T/C [7] of the same compound?
The viability, T/C was 91.3%.

What about the viability, T/C [8] of the same compound?
The viability, T/C was 78.9%.

And the viability, T/C (second compound 1 µM, first compound 0.316 µM)?
Its viability, T/C is 79.6%.

And the viability, T/C (second compound 1 µM, first compound 1 µM)?
The viability, T/C was 80.3%.

What about the viability, T/C (second compound 1 µM, first compound 3.16 µM) of the same compound?
The viability, T/C was 100%.

And the viability, T/C (second compound 1 µM, first compound 10 µM)?
Its viability, T/C is 77.3%.

What about the viability, T/C [9] of the same compound?
Its viability, T/C is 68.1%.

And the viability, T/C [10]?
Its viability, T/C is 76.9%.

What about the viability, T/C (second compound 3.16 µM, first compound 0.316 µM) of the same compound?
Its viability, T/C is 80.3%.

What about the viability, T/C (second compound 3.16 µM, first compound 1 µM) of the same compound?
The viability, T/C was 94.7%.

What about the viability, T/C (second compound 3.16 µM, first compound 3.16 µM) of the same compound?
Its viability, T/C is 83.6%.

And the viability, T/C (second compound 3.16 µM, first compound 10 µM)?
The viability, T/C was 50.4%.

What about the viability, T/C [11] of the same compound?
The viability, T/C was 73%.

What about the viability, T/C [12] of the same compound?
The viability, T/C was 79.4%.

And the viability, T/C (second compound 10 µM, first compound 0.316 µM)?
Its viability, T/C is 68.5%.

And the viability, T/C (second compound 10 µM, first compound 1 µM)?
Its viability, T/C is 74.3%.

What about the viability, T/C (second compound 10 µM, first compound 3.16 µM) of the same compound?
The viability, T/C was 82.6%.

And the viability, T/C (second compound 10 µM, first compound 10 µM)?
The viability, T/C was 37.9%.
